How the values were obtained:
[1] = for molar entropy: 101.33 kPa, Vacuum adiabatic calorimetry; for Triple point temperature: Adiabatic calorimetry
[2] = molar heat capacity at saturation pressure; conditions: Vacuum adiabatic calorimetry
[3] = Molar enthalpy of transition or fusion; conditions: Crystal 1; Adiabatic calorimetry

O=c1c2ccccc2oc2ccccc12 [9H-xanthen-9-one]
Conditions | molar entropy, [1] [J/K/mol] | molar heat capacity, [2] [J/K/mol]
4.948 K, Crystal 2 | – | 0.4157
5 K, Crystal 2 | 0.1497 | 0.449
5.884 K, Crystal 2 | – | 0.7317
6.774 K, Crystal 2 | – | 1.131
7.756 K, Crystal 2 | – | 1.68
8.886 K, Crystal 2 | – | 2.494
10 K, Crystal 2 | 1.189 | 3.475
10.01 K, Crystal 2 | – | 3.492
11.15 K, Crystal 2 | – | 4.606
12.42 K, Crystal 2 | – | 5.895
13.82 K, Crystal 2 | – | 7.574
15.41 K, Crystal 2 | – | 9.42
17.21 K, Crystal 2 | – | 11.62
19.14 K, Crystal 2 | – | 14.03
20 K, Crystal 2 | 7.009 | 15.07
21.27 K, Crystal 2 | – | 16.62
23.69 K, Crystal 2 | – | 19.61
26.45 K, Crystal 2 | – | 22.93
29.52 K, Crystal 2 | – | 26.48
30 K, Crystal 2 | 15.42 | 27.03
32.99 K, Crystal 2 | – | 30.34
36.76 K, Crystal 2 | – | 34.3
40 K, Crystal 2 | 24.67 | 37.43
40.81 K, Crystal 2 | – | 38.18
45.21 K, Crystal 2 | – | 42.3
49.99 K, Crystal 2 | – | 46.39
50 K, Crystal 2 | 34.01 | 46.4
55.3 K, Crystal 2 | – | 50.63
60 K, Crystal 2 | 43.17 | 54.19
61.27 K, Crystal 2 | – | 55.12
67.42 K, Crystal 2 | – | 59.55
70 K, Crystal 2 | 52.07 | 61.32
74.05 K, Crystal 2 | – | 64.05
80 K, Crystal 2 | 60.7 | 68.05
81.42 K, Crystal 2 | – | 68.99
89.28 K, Crystal 2 | – | 74.02
90 K, Crystal 2 | 69.08 | 74.5
97.77 K, Crystal 2 | – | 79.43
100 K, Crystal 2 | 77.26 | 80.83
107.1 K, Crystal 2 | – | 85.28
116.86 K, Crystal 2 | – | 91.41
120 K, Crystal 2 | 93.11 | 93.39
126.79 K, Crystal 2 | – | 97.69
136.84 K, Crystal 2 | – | 104.11
140 K, Crystal 2 | 108.46 | 106.16
146.73 K, Crystal 2 | – | 110.54
156.73 K, Crystal 2 | – | 117.13
160 K, Crystal 2 | 123.49 | 119.31
166.81 K, Crystal 2 | – | 123.9
176.93 K, Crystal 2 | – | 130.77
180 K, Crystal 2 | 138.32 | 132.89
187.03 K, Crystal 2 | – | 137.78
197.16 K, Crystal 2 | – | 144.95
200 K, Crystal 2 | 153.04 | 146.97
207.33 K, Crystal 2 | – | 152.23
217.49 K, Crystal 2 | – | 159.6
220 K, Crystal 2 | 167.73 | 161.45
227.64 K, Crystal 2 | – | 167.1
237.79 K, Crystal 2 | – | 174.59
240 K, Crystal 2 | 182.41 | 176.23
247 K, Crystal 2 | – | 181.5
257.21 K, Crystal 2 | – | 189.32
260 K, Crystal 2 | 197.12 | 191.47
267.43 K, Crystal 2 | – | 197.24
271.49 K, Crystal 2 | – | 200.45
277.66 K, Crystal 2 | – | 205.34
280 K, Crystal 2 | 211.88 | 207.28
281.58 K, Crystal 2 | – | 208.68
285.78 K, Crystal 2 | – | 211.94
287.89 K, Crystal 2 | – | 213.62
287.93 K, Crystal 2 | – | 213.81
290.92 K, Crystal 2 | – | 216.28
293.89 K, Crystal 2 | – | 218.7
296.84 K, Crystal 2 | – | 221.36
298.15 K, Crystal 2 | 225.36 | 222.59
299.77 K, Crystal 2 | – | 224.22
300 K, Crystal 2 | 226.74 | 224.32
302.68 K, Crystal 2 | – | 226.91
304.5 K, Crystal 1 | 230.12 | 217.42
304.5 K, Crystal 2 | 230.12 | 228.82
308.54 K, Crystal 1 | – | 220.52
314.52 K, Crystal 1 | – | 224.74
319.05 K, Crystal 1 | – | 228.22
320 K, Crystal 1 | 241.19 | 228.78
329.4 K, Crystal 1 | – | 234.88
339.75 K, Crystal 1 | – | 241.96
340 K, Crystal 1 | 255.47 | 242.13
350.05 K, Crystal 1 | – | 248.91
360 K, Crystal 1 | 269.69 | 255.59
360.25 K, Crystal 1 | – | 255.74
370.5 K, Crystal 1 | – | 262.7
380 K, Crystal 1 | 283.87 | 269.01
380.94 K, Crystal 1 | – | 269.61
391.39 K, Crystal 1 | – | 276.39
400 K, Crystal 1 | 298 | 281.96
401.81 K, Crystal 1 | – | 283.12
403.54 K, Crystal 1 | – | 284.25
411.03 K, Crystal 1 | – | 289
412.19 K, Crystal 1 | – | 289.73
416.69 K, Crystal 1 | – | 292.58
419.61 K, Crystal 1 | – | 294.44
420 K, Crystal 1 | 312.06 | 294.67
422.49 K, Crystal 1 | – | 296.32
426.25 K, Crystal 1 | – | 298.77
426.89 K, Crystal 1 | – | 299.05
428.37 K, Crystal 1 | – | 300.06
432.6 K, Crystal 1 | – | 302.78
434.54 K, Crystal 1 | – | 304.24
436.39 K, Crystal 1 | – | 305.61
436.87 K, Crystal 1 | – | 305.89
437 K, Crystal 1 | – | 305.66
438.34 K, Crystal 1 | – | 306.66
440 K, Crystal 1 | 326.08 | 307.81
441.53 K, Crystal 1 | – | 308.59
444.48 K, Crystal 1 | – | 310.76
448.8 K, Crystal 1 | 332.22 | 313.35
448.8 K, Liquid | 393.44 | 352.72
456.71 K, Liquid | – | 355.95
456.82 K, Liquid | – | 356.07
456.9 K, Liquid | – | 356.08
460 K, Liquid | 402.2 | 357.33
465.07 K, Liquid | – | 359.58
465.9 K, Liquid | – | 359.81
476.6 K, Liquid | – | 364.34
480 K, Liquid | 417.58 | 365.74
488.56 K, Liquid | – | 369.25
497.53 K, Liquid | – | 372.95
500 K, Liquid | 432.68 | 374.07
500.95 K, Liquid | – | 374.47
512.38 K, Liquid | – | 379.19
520 K, Liquid | 447.51 | 382.26
521.08 K, Liquid | – | 382.68

Conditions | mass density [kg/m3]
[1], 473 K, Liquid, Pycnometric method | 1090

[1]
Conditions | Triple point temperature [K]
Crystal 1 | 448.8
Crystal 2 | 304.5

Conditions | Molar enthalpy of transition or fusion [kcal/mol]
[3] | 6.567

Reference: the NIST ThermoML archive (doi:10.1016/j.jct.2015.02.009)
